Measured values taken from PubChem BioAssay (NCI).
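Five compound concentrations were applied to cells in 96-well plates for 48 hours; endpoints were derived by simple linear interpolation of the resulting dose-response curve. The concentration for 50% growth inhibition is given as GI50. TGI is the concentration that stops growth completely.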

Legend:
Assay in all cases: NCI tumour cell line growth inhibition, 48 h; in the data active = GI50 below about 0.43 µM; inactive = the rest
SK-MEL-28 melanoma = tested on: SK-MEL-28 melanoma
SK-MEL-5 melanoma = tested on: SK-MEL-5 melanoma
T-47D breast = tested on: T-47D breast
MDA-MB-231 breast = tested on: MDA-MB-231 breast
HT29 colon = tested on: HT29 colon
SK-OV-3 ovarian = tested on: SK-OV-3 ovarian
NCI/ADR-RES ovarian = tested on: NCI/ADR-RES ovarian
OVCAR-8 ovarian = tested on: OVCAR-8 ovarian
SNB-19 CNS = tested on: SNB-19 CNS
HCC-2998 colon = tested on: HCC-2998 colon
CAKI-1 renal = tested on: CAKI-1 renal
BT-549 breast = tested on: BT-549 breast
SR leukemia = tested on: SR leukemia
MOLT-4 leukemia = tested on: MOLT-4 leukemia
NCI-H226 lung = tested on: NCI-H226 lung
A549 NSCLC = tested on: A549 NSCLC
OVCAR-4 ovarian = tested on: OVCAR-4 ovarian
UACC-257 melanoma = tested on: UACC-257 melanoma
OVCAR-3 ovarian = tested on: OVCAR-3 ovarian
SN12C renal = tested on: SN12C renal
LOX IMVI melanoma = tested on: LOX IMVI melanoma
MDA-MB-435 = tested on: MDA-MB-435
NCI-H522 lung = tested on: NCI-H522 lung
SK-MEL-2 melanoma = tested on: SK-MEL-2 melanoma
MCF7 breast = tested on: MCF7 breast
HOP-62 NSCLC = tested on: HOP-62 NSCLC
OVCAR-5 ovarian = tested on: OVCAR-5 ovarian
KM12 colon = tested on: KM12 colon

Cc1c2c(nn1-c1ccc(S/N=C3\SCC(=O)CN3Cc3ccccc3)cc1)-c1ccccc1CC2
29.5 µM: TGI (SK-MEL-5 melanoma)
62.4 µM: TGI (SK-MEL-28 melanoma)
inactive: GI50 (SK-MEL-5 melanoma) 9.08 µM | GI50 (T-47D breast) 82.9 µM | GI50 (MDA-MB-231 breast) 24.8 µM | GI50 (HT29 colon) 51.5 µM | GI50 (SK-OV-3 ovarian) 88.9 µM | GI50 (NCI/ADR-RES ovarian) 39.2 µM | GI50 (OVCAR-8 ovarian) 41 µM | GI50 (SNB-19 CNS) > 100 µM | GI50 (HCC-2998 colon) 72.9 µM | GI50 (CAKI-1 renal) 26.6 µM | GI50 (BT-549 breast) 22.5 µM | GI50 (SR leukemia) 8.35 µM | GI50 (MOLT-4 leukemia) 9.62 µM | GI50 (NCI-H226 lung) 38.5 µM | GI50 (A549 NSCLC) 46.7 µM | GI50 (OVCAR-4 ovarian) 96.7 µM | GI50 (UACC-257 melanoma) 38.2 µM | GI50 (OVCAR-3 ovarian) 25.2 µM | GI50 (SN12C renal) 26.7 µM | GI50 (LOX IMVI melanoma) 10.7 µM | GI50 (MDA-MB-435) 20.6 µM | GI50 (NCI-H522 lung) 22.6 µM | GI50 (SK-MEL-2 melanoma) 58.2 µM | GI50 (MCF7 breast) 3.74 µM | GI50 (HOP-62 NSCLC) > 100 µM | GI50 (OVCAR-5 ovarian) > 100 µM | GI50 (KM12 colon) 60.1 µM
25 µM: TGI (LOX IMVI melanoma)
87.3 µM: TGI (MDA-MB-231 breast)
87.6 µM: TGI (CAKI-1 renal)
48.5 µM: TGI (MDA-MB-435)
54.7 µM: TGI (BT-549 breast)
68.3 µM: TGI (OVCAR-3 ovarian)
> 100 µM: TGI (T-47D breast) | TGI (HT29 colon) | TGI (SK-OV-3 ovarian) | TGI (NCI/ADR-RES ovarian) | TGI (OVCAR-8 ovarian) | TGI (SNB-19 CNS) | TGI (HCC-2998 colon) | TGI (SR leukemia) | TGI (MOLT-4 leukemia) | TGI (NCI-H226 lung) | TGI (A549 NSCLC) | TGI (OVCAR-4 ovarian) | TGI (UACC-257 melanoma) | TGI (SK-MEL-2 melanoma) | TGI (HOP-62 NSCLC) | TGI (OVCAR-5 ovarian) | TGI (KM12 colon)
59.7 µM: TGI (NCI-H522 lung)
35 µM: TGI (MCF7 breast)
99.7 µM: TGI (SN12C renal)
